Test results taken from PubChem BioAssay AID1963865 (Molecular Pharmacology Branch, DTP, NCI, 2024).
pIC50: −log10 of the molar value.

Test system: KRAS PDC multicell spheroid viability
Assay: Anticancer human tumor 825966-067-R-J1-PDC patient-derived colon carcinoma cell line growth inhibition [KRAS2]
Conditions: for pIC50: curve of first compound; for viability, T/C: stronger effect = lower value
Method in brief: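 KRAS-mutant tumor cells were grown as spheroids with HUVEC endothelial cells and human MSCs as stroma. Targeted agents were tested alone and with KRAS pathway inhibitors. Doses started at or near clinical Cmax, or 10 microM, descending half-log.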

[1] = second compound 0.1 µM, first compound 0.0316 µM
[2] = second compound 0.1 µM, first compound 0.1 µM
[3] = second compound 0.1 µM, first compound 0.316 µM
[4] = second compound 0.1 µM, first compound 1 µM
[5] = second compound 0.1 µM, first compound 3.16 µM
[6] = second compound 0.316 µM, first compound 0.0316 µM
[7] = second compound 0.316 µM, first compound 0.1 µM
[8] = second compound 0.316 µM, first compound 0.316 µM
[9] = second compound 0.316 µM, first compound 1 µM
[10] = second compound 0.316 µM, first compound 3.16 µM
[11] = second compound 1 µM, first compound 0.0316 µM
[12] = second compound 1 µM, first compound 0.1 µM
[13] = second compound 1 µM, first compound 0.316 µM
[14] = second compound 1 µM, first compound 1 µM
[15] = second compound 1 µM, first compound 3.16 µM
[16] = second compound 3.16 µM, first compound 0.0316 µM
[17] = second compound 3.16 µM, first compound 0.1 µM
[18] = second compound 3.16 µM, first compound 0.316 µM
[19] = second compound 3.16 µM, first compound 1 µM
[20] = second compound 3.16 µM, first compound 3.16 µM
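Note: spheroids exposed to compounds for 7 days.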
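Throughout, for viability, T/C: 100% = DMSO vehicle control viability.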

SMILES | pIC50 (second compound 0.1 µM) | pIC50 (second compound 0.316 µM) | pIC50 (second compound 1 µM) | pIC50 (second compound 3.16 µM) | viability, T/C [1] [%] | viability, T/C [2] [%] | viability, T/C [3] [%] | viability, T/C [4] [%] | viability, T/C [5] [%] | viability, T/C [6] [%] | viability, T/C [7] [%] | viability, T/C [8] [%] | viability, T/C [9] [%] | viability, T/C [10] [%] | viability, T/C [11] [%] | viability, T/C [12] [%] | viability, T/C [13] [%] | viability, T/C [14] [%] | viability, T/C [15] [%] | viability, T/C [16] [%] | also measured
CC1COCCN1c1cc(-c2ccnn2C)c2ccnc(-c3ccn[nH]3)c2n1 (stereo not given) + CC1OCC2(CCN(c3cnc(Sc4ccnc(N)c4Cl)c(N)n3)CC2)C1N | 5.54 | < 5.50 | 5.50 | 7.10 | 120 | 78.5 | 75.3 | 60 | 46.6 | 139 | 57.9 | 66.4 | 60.2 | 59 | 135 | 57.4 | 55.8 | 51.3 | 48.5 | 118 | pIC50 (second compound 10 µM): 7.76; viability, T/C (second compound 0.1 µM, first compound 0.01 µM): 135%; viability, T/C (second compound 0.316 µM, first compound 0.01 µM): 125%; viability, T/C (second compound 1 µM, first compound 0.01 µM): 128%; viability, T/C (second compound 3.16 µM, first compound 0.01 µM): 134%; viability, T/C [17]: 32.4%; viability, T/C [18]: 29%; viability, T/C [19]: 32.9%; viability, T/C [20]: 36.3%; viability, T/C (second compound 10 µM, first compound 0.01 µM): 68.1%; viability, T/C (second compound 10 µM, first compound 0.0316 µM): 29.6%; viability, T/C (second compound 10 µM, first compound 0.1 µM): 12.9%; viability, T/C (second compound 10 µM, first compound 0.316 µM): 11.3%; viability, T/C (second compound 10 µM, first compound 1 µM): 12.6%; viability, T/C (second compound 10 µM, first compound 3.16 µM): 18.3%
COC(=O)c1ccc2c(C(=Nc3ccc(N(C)C(=O)CN4CCN(C)CC4)cc3)c3ccccc3)c(O)[nH]c2c1 + C=CC(=O)N1CCN(c2nc(OCC3CCCN3C)nc3c2CCN(c2cccc4cccc(C)c24)C3)CC1CC#N | 6.07 | 6.27 | 6.30 | 6.88 | 107 | 84.5 | 96.4 | 42 | 0.21 | 75.4 | 83.7 | 95.8 | 9.82 | 0.13 | 78.8 | 87.2 | 73.9 | 13.7 | 1.46 | 87 | pIC50 (second compound 0.0316 µM): 6.23; viability, T/C (second compound 0.0316 µM, first compound 0.0316 µM): 78.2%; viability, T/C (second compound 0.0316 µM, first compound 0.1 µM): 94.9%; viability, T/C (second compound 0.0316 µM, first compound 0.316 µM): 75%; viability, T/C (second compound 0.0316 µM, first compound 1 µM): 28.2%; viability, T/C (second compound 0.0316 µM, first compound 3.16 µM): 0.37%; viability, T/C (second compound 0.0316 µM, first compound 10 µM): 0.12%; viability, T/C (second compound 0.1 µM, first compound 10 µM): 0.13%; viability, T/C (second compound 0.316 µM, first compound 10 µM): 0.12%; viability, T/C (second compound 1 µM, first compound 10 µM): 0.22%; viability, T/C [17]: 27.7%; viability, T/C [18]: 65.5%; viability, T/C [19]: 10.5%; viability, T/C [20]: 0.29%; viability, T/C (second compound 3.16 µM, first compound 10 µM): 0.2%
